Assay results reported in patent publication US20130053381A1, “2,4-DIOXO-1,4-DIHYDRO-2H-QUINAZOLIN-3-YL-SULFONAMIDE DERIVATIVES” (NOVARTIS AG, priority 2010, published 2013).

Molecular target: AMPA receptor
Test: [3H]CNQX binding test (AMPA-receptor binding)
Set-up: species or system rat
Details: Table 1A parent compounds; AMPA-receptor binding as described for Table 2; read-out: IC50
Experimental: CNQX binding test (Honore et al. Biochem. Pharmacol. 1989, 38: 3207-3212). This test is performed as follows.
Brain membranes: The animals are sacrificed, the brain removed and homogenized in 10 volumes of ice-cold 10% sucrose with a glass/Teflon homogenizer at positions 5 for 30 sec. The membranes are centrifuged at 1000×g for 10 min, and the supernatant centrifuged at 20,000×g for 15 min. The resulting pellet is resuspended in 10 volumes of cold water with a tissue homogenizer (Brinkman Polytron) at position 5 for 15 sec and the suspension centrifuged at 8000×g for 10 min. The supernatant including the buffy layer is centrifuged at 40,000×g for 20 min, the pellet resuspended in 5 volumes of water and the suspension frozen (20-30 min in dry ice/MeOH) and thawed (water-bath at 37° C.) twice. The suspension is centrifuged at 40,000×g for 20 min, the pellet resuspended in 50 mM HEPES/KOH, pH 7.5, and centrifuged at 40,000×g for 10 min. The final pellet is resuspended with a glass/Teflon homogenizer in 5 volumes of HEPES/KOH buffer; 2 mL aliquots are frozen and stored in liquid nitrogen.
Pretreatment of membranes: Membranes are thawed at 35° C. and once washed with 50 mM HEPES/KOH by centrifugation at 39,000×g for 10 min. The final pellet is resuspended with a glass/Teflon homogenizer in the same buffer.
Radioligand binding assay: It is performed using 96-well microtiterplates in a volume of 0.3 mL of 50 mM HEPES/KOH, pH 7.2, 100 μg membrane protein, 5 nM [^3H]-CNQX (NEN) and the compound to be tested. Incubation is performed at 4° C. for 40 min and the reaction is terminated by centrifugation (Sigma 4K10) at 3700×g for 30 min. The pellet is washed once with cold buffer and then dissolved in 0.02 mL of the tissue solubilizer Soluene for 20 min. Two hundred μL of the scintillation fluid Microscint 20 (Packard) are added and the radioactivity is counted in a Packard Topcount scintillation counter at an efficiency of 40-45%. Nonspecific binding is defined by 10 μM CNQX. Assays are performed in triplicate.

SMILES	IC50
CCOC(C)c1cc2c(=O)n(NS(C)(=O)=O)c(=O)[nH]c2cc1C(F)F (stereo not shown) [Example 21.0]	900 nM
CS(=O)(=O)Nn1c(=O)[nH]c2cc(C(F)(F)F)c(C3CCCCO3)cc2c1=O (stereo not shown) [Example 29.0]	1080 nM
CS(=O)(=O)Nn1c(=O)[nH]c2cc(C(F)(F)F)c(C3CCOC3)cc2c1=O (stereo not shown) [Example 30.0]	220 nM
CS(=O)(=O)Nn1c(=O)[nH]c2cc(C(F)(F)F)c(-c3ccnn3O)cc2c1=O [Example 31.0]	140 nM
COCCn1nccc1-c1cc2c(=O)n(NS(C)(=O)=O)c(=O)[nH]c2cc1C(F)(F)F [Example 32.0]	310 nM
CC(C)n1nccc1-c1cc2c(=O)n(NS(C)(=O)=O)c(=O)[nH]c2cc1CF [Example 33.0]	440 nM
Cn1nccc1-c1cc2c(=O)n(NS(C)(=O)=O)c(=O)[nH]c2cc1C(F)F [Example 34.0]	260 nM

The next lines start with the values.

IC50	SMILES
390 nM	COC(C)c1cc2c(=O)n(NS(C)(=O)=O)c(=O)[nH]c2cc1C(F)(F)F (stereo not shown) [Example 16.0]
350 nM	CCOC(C)c1cc2c(=O)n(NS(C)(=O)=O)c(=O)[nH]c2cc1C(F)(F)F (stereo not shown) [Example 17.0]
320 nM	CC(C)OC(C)c1cc2c(=O)n(NS(C)(=O)=O)c(=O)[nH]c2cc1C(F)(F)F (stereo not shown) [Example 18.0]
520 nM	CCCOC(CC)c1cc2c(=O)n(NS(C)(=O)=O)c(=O)[nH]c2cc1C(F)(F)F (stereo not shown) [Example 19.0]
380 nM	CCC(OC(C)C)c1cc2c(=O)n(NS(C)(=O)=O)c(=O)[nH]c2cc1C(F)(F)F (stereo not shown) [Example 20.0]
980 nM	CCCOC(C)c1cc2c(=O)n(NS(C)(=O)=O)c(=O)[nH]c2cc1C(F)(F)F (stereo not shown) [Example 22.0]
760 nM	CCCCOC(C)c1cc2c(=O)n(NS(C)(=O)=O)c(=O)[nH]c2cc1C(F)(F)F (stereo not shown) [Example 23.0]
1810 nM	CC(C)COC(C)c1cc2c(=O)n(NS(C)(=O)=O)c(=O)[nH]c2cc1C(F)(F)F (stereo not shown) [Example 24.0]
540 nM	CC(OC1CCCC1)c1cc2c(=O)n(NS(C)(=O)=O)c(=O)[nH]c2cc1C(F)(F)F (stereo not shown) [Example 25.0]
510 nM	CCOC(CC)c1cc2c(=O)n(NS(C)(=O)=O)c(=O)[nH]c2cc1C(F)(F)F (stereo not shown) [Example 26.0]
720 nM	CCCC(OC)c1cc2c(=O)n(NS(C)(=O)=O)c(=O)[nH]c2cc1C(F)(F)F (stereo not shown) [Example 27.0]
1040 nM	COC(c1cc2c(=O)n(NS(C)(=O)=O)c(=O)[nH]c2cc1C(F)(F)F)C(C)C (stereo not shown) [Example 28.0]

Test system: OF1 mice
Test: Maximal electroshock test (MES Test)
Type: in vivo
Details: Mus musculus; dose of up to 50 mg/kg, p.o., 1 hour prior to induction of convulsions; read-out: %-Protection
Method in brief: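 Compound given p.o. (typically 50 mg/kg) 1 h before tonic-clonic convulsions were induced via temporal electrodes (50 Hz, 18 mA, 0.2 s); seizure lasting 3 s or less counted as protection. Read-out is percent protected of five mice per condition; ED50 calculated, blood exposure sampled after shock.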

SMILES	responders at 50 mg/kg
CCn1nccc1-c1cc2c(=O)n(N(C(=O)CCSC)S(C)(=O)=O)c(=O)[nH]c2cc1C(F)F [N-[7-Difluoromethyl-6-(2-ethyl-2H-pyrazol-3-yl)-2,4-dioxo-1,4-dihydro-2H-quinazolin-3-yl]-N-(3-methylsulfanyl-propionyl)-methanesulfonamide]	0%
CCCCC(=O)N(n1c(=O)[nH]c2cc(C(F)F)c(-c3ccnn3CC)cc2c1=O)S(C)(=O)=O [N-[7-Difluoromethyl-6-(2-ethyl-2H-pyrazol-3-yl)-2,4-dioxo-1,4-dihydro-2H-quinazolin-3-yl]-N-pentanoyl-methanesulfonamide]	0%
CCC(=O)N(n1c(=O)[nH]c2cc(C(F)F)c(-c3ccnn3CC)cc2c1=O)S(C)(=O)=O [N-[7-Difluoromethyl-6-(2-ethyl-2H-pyrazol-3-yl)-2,4-dioxo-1,4-dihydro-2H-quinazolin-3-yl]-N-propionyl-methanesulfonamide]	0%
CCCCCC(=O)N(n1c(=O)[nH]c2cc(C(F)F)c(-c3ccnn3C(C)C)cc2c1=O)S(C)(=O)=O [N-[7-Difluoromethyl-6-(2-isopropyl-2H-pyrazol-3-yl)-2,4-dioxo-1,4-dihydro-2H-quinazolin-3-yl]-N-hexanoyl-methanesulfonamide]	0%
CC(C)C(=O)N(n1c(=O)[nH]c2cc(C(F)F)c(-c3ccnn3C(C)C)cc2c1=O)S(C)(=O)=O [N-[7-Difluoromethyl-6-(2-isopropyl-2H-pyrazol-3-yl)-2,4-dioxo-1,4-dihydro-2H-quinazolin-3-yl]-N-isobutyryl-methanesulfonamide]	0%
CCc1cc2[nH]c(=O)n(N(C(=O)C(C)C)S(C)(=O)=O)c(=O)c2cc1-c1ccnn1CC [N-[7-Ethyl-6-(2-ethyl-2H-pyrazol-3-yl)-2,4-dioxo-1,4-dihydro-2H-quinazolin-3-yl]-N-isobutyryl-methanesulfonamide]	0%
CCc1cc2[nH]c(=O)n(N(C(=O)C(C)C)S(C)(=O)=O)c(=O)c2cc1-c1ccnn1C [N-[7-Ethyl-6-(2-methyl-2H-pyrazol-3-yl)-2,4-dioxo-1,4-dihydro-2H-quinazolin-3-yl]-N-isobutyryl-methanesulfonamide]	0%
CC(C)CC(=O)N(n1c(=O)[nH]c2cc(C(C)C)c(-c3ccnn3C)cc2c1=O)S(C)(=O)=O [N-[7-Isopropyl-6-(2-methyl-2H-pyrazol-3-yl)-2,4-dioxo-1,4-dihydro-2H-quinazolin-3-yl]-N-(3-methyl-butyryl)-methanesulfonamide]	0%
CC(C)C(=O)N(n1c(=O)[nH]c2cc(C(F)(F)F)c([C@H]3CCCO3)cc2c1=O)S(C)(=O)=O [N—((R)-2,4-Dioxo-6-tetrahydro-furan-2-yl-7-trifluoromethyl-1,4-dihydro-2H-quinazolin-3-yl)-N-isobutyryl-methanesulfonamide]	0%
COC(=O)N(n1c(=O)[nH]c2cc(C(F)(F)F)c(-c3ccnn3C(C)C)cc2c1=O)S(C)(=O)=O [[6-(2-Isopropyl-2H-pyrazol-3-yl)-2,4-dioxo-7-trifluoromethyl-1,4-dihydro-2H-quinazolin-3-yl]-methanesulfonyl-carbamic acid methyl ester]	0%
CCCCOC(=O)N(n1c(=O)[nH]c2cc(C(F)F)c(-c3ccnn3CC)cc2c1=O)S(C)(=O)=O [[7-Difluoromethyl-6-(2-ethyl-2H-pyrazol-3-yl)-2,4-dioxo-1,4-dihydro-2H-quinazolin-3-yl]-methanesulfonyl-carbamic acid butyl ester]	0%
CCn1nccc1-c1cc2c(=O)n(N(C(=O)OC)S(C)(=O)=O)c(=O)[nH]c2cc1C(F)F [[7-Difluoromethyl-6-(2-ethyl-2H-pyrazol-3-yl)-2,4-dioxo-1,4-dihydro-2H-quinazolin-3-yl]-methanesulfonyl-carbamic acid methyl ester]	0%
CCCCOC(=O)N(n1c(=O)[nH]c2cc(C(F)F)c(-c3ccnn3C(C)C)cc2c1=O)S(C)(=O)=O [[7-Difluoromethyl-6-(2-isopropyl-2H-pyrazol-3-yl)-2,4-dioxo-1,4-dihydro-2H-quinazolin-3-yl]-methanesulfonyl-carbamic acid butyl ester]	0%
CC(C)COC(=O)N(n1c(=O)[nH]c2cc(C(F)F)c(-c3ccnn3C(C)C)cc2c1=O)S(C)(=O)=O [[7-Difluoromethyl-6-(2-isopropyl-2H-pyrazol-3-yl)-2,4-dioxo-1,4-dihydro-2H-quinazolin-3-yl]-methanesulfonyl-carbamic acid isobutyl ester]	0%
COC(=O)N(n1c(=O)[nH]c2cc(C(F)F)c(-c3ccnn3C(C)C)cc2c1=O)S(C)(=O)=O [[7-Difluoromethyl-6-(2-isopropyl-2H-pyrazol-3-yl)-2,4-dioxo-1,4-dihydro-2H-quinazolin-3-yl]-methanesulfonyl-carbamic acid methyl ester]	0%
